Test results from ChEMBL document CHEMBL3867477 (Bioorg Med Chem Lett, 2016).
Values after ≈ are worked out from the molar mass of the structure shown. Each block holds one compound with its values, some of them ahead of it.

Key:
[1] = biological target: Sodium channel protein type 5 subunit alpha (Homo sapiens, UniProt Q14524); experiment: Inhibition of Nav1.5 (unknown origin)
[2] = biological target: Voltage-dependent L-type calcium channel subunit alpha-1C (Homo sapiens, UniProt Q13936); experiment: Inhibition of Cav1.2 (unknown origin)
[3] = Displacement of (2S)-N-(2-phenylphenyl)-1-[2-[1-(tritritiomethyl)benzimidazol-2-yl]sulfanylacetyl]pyrrolidine-2-carboxamide from human OX1 receptor Ile408-Val mutant expressed on CHO cell membrane measured after 3 hrs by TopCount method; assay type: cell membranes
Orexin receptor type 2 [4] = biological target: T1, Orexin receptor type 2 (Homo sapiens, UniProt O43614); experiment: Displacement of (2S)-N-(2-pyrrol-1-ylphenyl)-1-[2-[1-(tritritiomethyl)benzimidazol-2-yl]sulfanylacetyl]pyrrolidine-2-carboxamide from human OX2 receptor expressed on CHO cell membrane measured after 3 hrs by TopCount method; assay type: cell membranes
T1 sequence (O43614 whole entry): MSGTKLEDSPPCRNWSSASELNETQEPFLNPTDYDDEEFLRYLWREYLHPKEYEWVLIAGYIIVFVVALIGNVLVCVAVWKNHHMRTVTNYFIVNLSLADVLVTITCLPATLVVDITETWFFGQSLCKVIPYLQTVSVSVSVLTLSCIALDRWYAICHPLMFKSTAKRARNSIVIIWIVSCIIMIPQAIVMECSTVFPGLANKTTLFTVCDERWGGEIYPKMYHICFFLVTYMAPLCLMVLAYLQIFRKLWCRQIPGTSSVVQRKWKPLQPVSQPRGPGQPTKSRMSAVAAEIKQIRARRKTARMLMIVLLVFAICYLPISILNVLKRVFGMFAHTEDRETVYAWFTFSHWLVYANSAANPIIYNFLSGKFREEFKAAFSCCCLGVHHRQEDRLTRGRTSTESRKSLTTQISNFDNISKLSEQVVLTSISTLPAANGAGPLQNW

CHO = experiment: Selectivity index, ratio of Ki for human OX2 receptor expressed on CHO cell membrane to Ki for Ile408-Val variant human OX1 receptor expressed on CHO cell membrane; assay type: cell-based
[5] = Aqueous solubility of the compound at pH 2; assay type: physicochemical; settings: aqueous medium
[6] = Aqueous solubility of the compound at pH 7; assay type: physicochemical; settings: aqueous medium
[7] = biological target: T2, Orexin/Hypocretin receptor type 1 (Homo sapiens) (UniProt O43613); experiment: Potency index, ratio of PE8 Ki to compound Ki for human OX1 receptor
T2 sequence (whole entry): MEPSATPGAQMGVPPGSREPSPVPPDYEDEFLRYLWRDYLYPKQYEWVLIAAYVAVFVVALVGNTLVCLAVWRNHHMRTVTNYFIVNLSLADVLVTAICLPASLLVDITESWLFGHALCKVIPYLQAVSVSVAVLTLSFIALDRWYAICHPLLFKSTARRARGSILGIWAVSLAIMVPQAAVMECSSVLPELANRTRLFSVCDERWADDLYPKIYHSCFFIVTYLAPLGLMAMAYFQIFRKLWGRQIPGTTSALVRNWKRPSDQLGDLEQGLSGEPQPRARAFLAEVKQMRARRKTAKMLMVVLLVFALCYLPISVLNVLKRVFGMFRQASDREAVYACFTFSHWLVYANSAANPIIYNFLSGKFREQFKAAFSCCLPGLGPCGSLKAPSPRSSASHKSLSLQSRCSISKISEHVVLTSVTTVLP

[8] = Intrinsic clearance in dog liver microsomes; assay type: ADME, Canis lupus familiaris; settings: read-out: CLH
Orexin receptor type 2 [9] = biological target: T3, Orexin receptor type 2 (Rattus norvegicus, UniProt P56719); assay type: functional
T3 sequence (P56719 whole entry): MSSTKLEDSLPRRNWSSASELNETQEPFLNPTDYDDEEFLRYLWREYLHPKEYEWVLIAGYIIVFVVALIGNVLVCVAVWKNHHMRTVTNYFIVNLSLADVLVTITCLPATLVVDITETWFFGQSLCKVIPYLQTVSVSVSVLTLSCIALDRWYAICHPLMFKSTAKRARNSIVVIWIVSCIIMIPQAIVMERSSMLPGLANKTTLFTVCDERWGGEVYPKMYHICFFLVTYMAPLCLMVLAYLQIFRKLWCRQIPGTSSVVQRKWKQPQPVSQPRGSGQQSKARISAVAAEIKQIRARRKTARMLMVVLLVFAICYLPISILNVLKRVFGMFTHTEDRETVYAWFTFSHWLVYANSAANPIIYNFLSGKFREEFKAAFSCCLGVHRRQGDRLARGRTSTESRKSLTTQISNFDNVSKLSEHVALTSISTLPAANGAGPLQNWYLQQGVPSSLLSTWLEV
Description: Antagonist activity at rat OX2 receptor assessed as inhibition of Ala-6,12 orexin-A-induced calcium increase preincubated for 5 mins prior to Ala-6,12 orexin-A addition measured at 1 sec intervals for 1 min by Fluo-4AM dye-based FLIPR assay

[10] = Intrinsic clearance in rat liver microsomes; assay type: ADME; settings: read-out: CLH
[11] = Intrinsic clearance in human liver microsomes; assay type: ADME; settings: read-out: CLH
[12] = Selectivity index, ratio of IC50 for human OX1 receptor to IC50 for rat OX1 receptor
[13] = Oral bioavailability in rat at 10 mg/kg; assay type: ADME, organism-based; settings: in vivo
[14] = Clearance in rat at 2 mg/kg, iv; assay type: ADME, organism-based; settings: in vivo
[15] = Protein binding in dog plasma; assay type: ADME, cell-free, Canis lupus familiaris; settings: read-out: PPB (converted)
[16] = biological target: T4, Orexin/Hypocretin receptor type 1 (Rattus norvegicus, UniProt P56718); experiment: Antagonist activity at rat OX1 receptor assessed as inhibition of Ala-6,12 orexin-A-induced calcium increase preincubated for 5 mins prior to Ala-6,12 orexin-A addition measured at 1 sec intervals for 1 min by Fluo-4AM dye-based FLIPR assay; assay type: functional
T4 sequence (P56718 whole entry): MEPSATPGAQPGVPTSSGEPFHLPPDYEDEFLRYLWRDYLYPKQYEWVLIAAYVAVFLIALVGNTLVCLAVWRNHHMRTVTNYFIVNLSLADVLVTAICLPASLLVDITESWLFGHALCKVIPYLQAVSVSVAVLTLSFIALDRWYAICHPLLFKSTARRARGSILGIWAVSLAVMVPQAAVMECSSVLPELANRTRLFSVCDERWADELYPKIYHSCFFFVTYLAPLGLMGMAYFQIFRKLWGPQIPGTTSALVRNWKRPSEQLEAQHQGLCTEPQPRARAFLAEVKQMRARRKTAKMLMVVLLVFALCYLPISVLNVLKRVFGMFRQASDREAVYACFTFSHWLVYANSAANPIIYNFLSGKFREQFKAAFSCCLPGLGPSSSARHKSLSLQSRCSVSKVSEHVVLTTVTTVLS

[17] = Antagonist activity at human OX1 receptor Ile408-Val mutant expressed on CHO cell membrane assessed as inhibition of Ala-6,12 orexin-A-induced calcium increase preincubated for 5 mins prior to Ala-6,12 orexin-A addition measured at 1 sec intervals for 1 min by Fluo-4AM dye-based FLIPR assay
Orexin receptor type 2 [18] = biological target: T1, Orexin receptor type 2; assay type: functional, cell-based, CHO
Description: Antagonist activity at human OX2 receptor expressed on CHO cell membrane assessed as inhibition of Ala-6,12 orexin-A-induced calcium increase preincubated for 5 mins prior to Ala-6,12 orexin-A addition measured at 1 sec intervals for 1 min by Fluo-4AM dye-based FLIPR assay

Rattus norvegicus = organism: Rattus norvegicus; experiment: Selectivity index, ratio of IC50 for rat OX2 receptor to IC50 for rat OX1 receptor
[19] = Protein binding in human plasma; assay type: ADME, cell-free; settings: read-out: PPB (converted)
[20] = Intrinsic clearance in rhesus monkey liver microsomes; assay type: ADME, Macaca mulatta; settings: read-out: CLH
[21] = Half life in rat at 2 mg/kg, iv or 10 mg/kg, po; assay type: ADME, organism-based; settings: in vivo
[22] = Clearance in dog at 0.5 mg/kg, iv or 10 mg/kg, po; assay type: ADME, organism-based, Canis lupus familiaris; settings: in vivo
[23] = Half life in dog at 0.5 mg/kg, iv or 10 mg/kg, po; assay type: ADME, organism-based, Canis lupus familiaris; settings: in vivo
[24] = Oral bioavailability in dog at 3 mg/kg; assay type: ADME, organism-based, Canis lupus familiaris; settings: in vivo
[25] = Clearance in rhesus monkey at 2 mg/kg, iv or 10 mg/kg, po; assay type: ADME, organism-based, Macaca mulatta; settings: in vivo
[26] = Half life in rhesus monkey at 2 mg/kg, iv or 10 mg/kg, po; assay type: ADME, organism-based, Macaca mulatta; settings: in vivo
[27] = Oral bioavailability in rhesus monkey at 10 mg/kg; assay type: ADME, organism-based, Macaca mulatta; settings: in vivo
[28] = Apparent permeability of the compound; assay type: ADME; settings: not told
[29] = Protein binding in rat plasma; assay type: ADME, cell-free; settings: read-out: PPB (converted)
[30] = Protein binding in rhesus monkey plasma; assay type: ADME, cell-free, Macaca mulatta; settings: read-out: PPB (converted)
[31] = biological target: T5, Orexin/Hypocretin receptor type 1 (Homo sapiens, UniProt O43613); experiment: Binding affinity to OX1 receptor (unknown origin)
T5 sequence (O43613 whole entry): T2 sequence (whole entry)

[32] = biological target: T2, Orexin/Hypocretin receptor type 1 (Homo sapiens); experiment: Binding affinity to OX1 receptor (unknown origin) assessed as association rate constant
[33] = biological target: T2, Orexin/Hypocretin receptor type 1 (Homo sapiens); experiment: Binding affinity to OX1 receptor (unknown origin) assessed as dissociation rate constant
[34] = Drug metabolism in rat liver microsomes assessed as oxidation of banzamide; assay type: ADME

Voltage-dependent L-type calcium channel subunit alpha-1C, sequence (Q13936 whole entry): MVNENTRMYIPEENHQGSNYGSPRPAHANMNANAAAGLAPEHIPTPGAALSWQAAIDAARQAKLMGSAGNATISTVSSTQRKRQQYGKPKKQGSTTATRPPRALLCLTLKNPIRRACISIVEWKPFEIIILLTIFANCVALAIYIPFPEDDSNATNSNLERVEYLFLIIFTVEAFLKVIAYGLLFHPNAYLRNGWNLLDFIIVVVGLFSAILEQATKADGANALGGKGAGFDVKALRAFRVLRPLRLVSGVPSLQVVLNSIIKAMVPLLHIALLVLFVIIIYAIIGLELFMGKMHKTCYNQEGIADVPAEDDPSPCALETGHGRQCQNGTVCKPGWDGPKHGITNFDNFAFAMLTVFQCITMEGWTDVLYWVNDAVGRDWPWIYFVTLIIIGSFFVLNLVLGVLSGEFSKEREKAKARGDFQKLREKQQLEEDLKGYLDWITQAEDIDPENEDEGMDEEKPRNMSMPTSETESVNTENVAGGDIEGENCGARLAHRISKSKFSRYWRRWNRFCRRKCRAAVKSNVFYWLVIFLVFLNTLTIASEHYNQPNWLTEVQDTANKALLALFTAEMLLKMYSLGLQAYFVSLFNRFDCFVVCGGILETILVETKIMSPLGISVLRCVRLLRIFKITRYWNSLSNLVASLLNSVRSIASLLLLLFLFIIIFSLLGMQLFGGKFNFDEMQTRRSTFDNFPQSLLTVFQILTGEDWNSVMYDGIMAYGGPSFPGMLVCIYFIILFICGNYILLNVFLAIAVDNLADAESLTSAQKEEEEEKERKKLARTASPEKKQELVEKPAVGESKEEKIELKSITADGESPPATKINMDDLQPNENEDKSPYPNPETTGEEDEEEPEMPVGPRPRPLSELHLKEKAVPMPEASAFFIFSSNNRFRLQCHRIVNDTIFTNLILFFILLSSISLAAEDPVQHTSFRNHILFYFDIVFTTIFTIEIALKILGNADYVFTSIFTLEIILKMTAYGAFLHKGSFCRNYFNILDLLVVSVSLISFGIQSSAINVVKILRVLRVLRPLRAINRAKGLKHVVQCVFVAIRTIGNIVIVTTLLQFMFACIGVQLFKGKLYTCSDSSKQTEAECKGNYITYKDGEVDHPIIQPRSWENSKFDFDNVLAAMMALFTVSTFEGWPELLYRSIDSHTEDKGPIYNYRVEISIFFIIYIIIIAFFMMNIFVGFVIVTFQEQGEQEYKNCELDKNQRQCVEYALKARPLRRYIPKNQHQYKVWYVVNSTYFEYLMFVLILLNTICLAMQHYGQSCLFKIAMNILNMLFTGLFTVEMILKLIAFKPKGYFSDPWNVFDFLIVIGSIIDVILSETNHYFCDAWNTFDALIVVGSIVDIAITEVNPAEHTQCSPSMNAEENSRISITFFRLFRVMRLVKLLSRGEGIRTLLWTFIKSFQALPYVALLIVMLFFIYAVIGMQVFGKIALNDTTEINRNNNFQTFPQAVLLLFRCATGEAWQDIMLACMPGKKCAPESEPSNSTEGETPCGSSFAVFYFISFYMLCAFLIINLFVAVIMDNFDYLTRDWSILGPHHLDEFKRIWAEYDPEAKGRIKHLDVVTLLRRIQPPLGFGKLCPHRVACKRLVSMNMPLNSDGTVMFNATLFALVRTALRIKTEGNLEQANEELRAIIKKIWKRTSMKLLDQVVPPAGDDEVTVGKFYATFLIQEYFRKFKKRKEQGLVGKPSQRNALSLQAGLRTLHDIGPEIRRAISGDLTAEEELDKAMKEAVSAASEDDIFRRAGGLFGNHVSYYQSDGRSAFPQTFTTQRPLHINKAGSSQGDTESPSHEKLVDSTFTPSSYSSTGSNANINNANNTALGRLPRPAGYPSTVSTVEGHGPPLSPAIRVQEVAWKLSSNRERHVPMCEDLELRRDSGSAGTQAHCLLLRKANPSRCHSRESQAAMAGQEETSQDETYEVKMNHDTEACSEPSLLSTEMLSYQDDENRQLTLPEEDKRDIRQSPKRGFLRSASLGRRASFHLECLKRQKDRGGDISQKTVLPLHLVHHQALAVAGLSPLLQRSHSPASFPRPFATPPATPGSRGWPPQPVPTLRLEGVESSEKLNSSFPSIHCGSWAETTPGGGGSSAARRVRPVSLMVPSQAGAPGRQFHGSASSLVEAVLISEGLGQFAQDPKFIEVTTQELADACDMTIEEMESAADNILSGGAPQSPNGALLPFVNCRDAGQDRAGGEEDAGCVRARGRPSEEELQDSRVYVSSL
Sodium channel protein type 5 subunit alpha, sequence (Q14524 whole entry): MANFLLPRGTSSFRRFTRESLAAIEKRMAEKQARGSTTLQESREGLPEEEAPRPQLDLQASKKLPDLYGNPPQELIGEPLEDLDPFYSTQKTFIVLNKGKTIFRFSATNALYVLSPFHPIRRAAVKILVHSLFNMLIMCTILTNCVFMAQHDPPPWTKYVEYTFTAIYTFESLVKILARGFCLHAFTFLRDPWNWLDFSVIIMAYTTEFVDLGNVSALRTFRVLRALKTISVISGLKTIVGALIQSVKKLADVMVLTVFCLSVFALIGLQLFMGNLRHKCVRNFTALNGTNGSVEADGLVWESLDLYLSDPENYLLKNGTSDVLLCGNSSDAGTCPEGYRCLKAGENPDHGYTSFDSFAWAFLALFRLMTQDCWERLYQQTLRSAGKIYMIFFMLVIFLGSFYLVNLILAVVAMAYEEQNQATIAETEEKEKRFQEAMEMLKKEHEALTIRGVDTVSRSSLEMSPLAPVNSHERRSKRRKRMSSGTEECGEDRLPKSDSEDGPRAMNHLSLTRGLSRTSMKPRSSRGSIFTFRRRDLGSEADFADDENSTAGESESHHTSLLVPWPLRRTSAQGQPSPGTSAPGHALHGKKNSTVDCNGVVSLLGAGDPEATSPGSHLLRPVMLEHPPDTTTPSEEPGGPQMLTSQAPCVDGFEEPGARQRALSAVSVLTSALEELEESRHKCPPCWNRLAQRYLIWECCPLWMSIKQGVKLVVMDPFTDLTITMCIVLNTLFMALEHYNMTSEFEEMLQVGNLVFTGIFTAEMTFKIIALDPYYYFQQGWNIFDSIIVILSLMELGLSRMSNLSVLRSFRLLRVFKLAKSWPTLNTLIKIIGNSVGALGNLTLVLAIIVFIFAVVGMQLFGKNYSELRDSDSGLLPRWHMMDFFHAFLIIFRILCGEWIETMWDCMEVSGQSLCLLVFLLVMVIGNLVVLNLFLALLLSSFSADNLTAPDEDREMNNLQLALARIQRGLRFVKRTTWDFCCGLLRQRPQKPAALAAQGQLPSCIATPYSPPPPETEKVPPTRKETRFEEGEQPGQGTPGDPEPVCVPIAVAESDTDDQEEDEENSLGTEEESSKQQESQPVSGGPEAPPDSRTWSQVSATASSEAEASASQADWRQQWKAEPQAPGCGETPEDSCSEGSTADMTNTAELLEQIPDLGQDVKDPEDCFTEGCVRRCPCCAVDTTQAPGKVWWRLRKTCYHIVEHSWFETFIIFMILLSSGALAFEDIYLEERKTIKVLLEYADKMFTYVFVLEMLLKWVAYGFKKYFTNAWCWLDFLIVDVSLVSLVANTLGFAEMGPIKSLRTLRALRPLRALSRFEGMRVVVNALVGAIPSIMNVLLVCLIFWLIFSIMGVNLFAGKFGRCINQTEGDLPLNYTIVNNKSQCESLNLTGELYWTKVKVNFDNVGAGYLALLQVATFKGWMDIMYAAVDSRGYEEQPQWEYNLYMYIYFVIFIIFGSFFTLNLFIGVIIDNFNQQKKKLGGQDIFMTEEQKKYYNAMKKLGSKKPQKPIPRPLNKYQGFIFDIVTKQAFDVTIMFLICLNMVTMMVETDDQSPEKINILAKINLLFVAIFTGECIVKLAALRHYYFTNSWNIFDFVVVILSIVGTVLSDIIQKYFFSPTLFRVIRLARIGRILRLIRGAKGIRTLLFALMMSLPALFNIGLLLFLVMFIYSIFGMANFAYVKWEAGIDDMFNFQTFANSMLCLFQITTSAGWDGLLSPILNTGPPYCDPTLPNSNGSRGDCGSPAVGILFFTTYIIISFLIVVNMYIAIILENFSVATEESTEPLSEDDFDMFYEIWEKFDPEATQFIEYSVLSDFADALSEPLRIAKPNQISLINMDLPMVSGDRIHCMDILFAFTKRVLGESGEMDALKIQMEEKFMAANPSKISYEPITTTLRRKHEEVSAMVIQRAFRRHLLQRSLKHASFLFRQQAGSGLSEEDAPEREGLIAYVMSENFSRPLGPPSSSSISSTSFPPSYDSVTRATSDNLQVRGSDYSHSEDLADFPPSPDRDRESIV

Ki (Orexin receptor type 2 [4]): 1560 nM | solubility [5]: > 150 µM | solubility [6]: > 150 µM
SMILES: O=C(c1ccnc2[nH]ccc12)N1CCC(F)(F)[C@@H](Oc2ccc3ccccc3n2)C1
inhibition (INH) [1]: Active | inhibition (INH) [2]: Active | Ki [3]: 2.5 nM | Ratio Ki (CHO): 626

Ratio Ki [7]: 2 | Ki (Orexin receptor type 2 [4]): 271 nM
SMILES: O=C(c1ccccc1-n1cccn1)N1CCC(F)(F)[C@@H](Oc2ccc3ccccc3n2)C1
Ki [3]: 0.48 nM | Ratio Ki (CHO): 564

CLint scaled [8]: < 75 mL/min/kg | IC50 (Orexin receptor type 2 [9]): > 10000 nM | CLint scaled [10]: 267 mL/min/kg | CLint scaled [11]: 55 mL/min/kg | Ratio IC50 [12]: 3 to 4 | bioavailability [13]: 22% | clearance [14]: 45 mL/min/kg | fraction unbound [15]: 0.2 | IC50 [16]: 16 nM | Ki (Orexin receptor type 2 [4]): 2140 nM | IC50 [17]: 58 nM | IC50 (Orexin receptor type 2 [18]): > 10000 nM | Ratio IC50 (Rattus norvegicus): > 625 | solubility [5]: 192 µM (≈ 78.6 µg/mL) | solubility [6]: 182 µM (≈ 74.5 µg/mL) | fraction unbound [19]: 0.14 | CLint scaled [20]: 189 mL/min/kg | half-life [21]: 3.2 h | clearance [22]: 12 mL/min/kg | half-life [23]: 1 h | bioavailability [24]: 63% | clearance [25]: 25 mL/min/kg | half-life [26]: 2 h | bioavailability [27]: 16% | Papp [28]: 33 ×10⁻⁶ cm/s | fraction unbound [29]: 0.17 | fraction unbound [30]: 0.16 | Kd [31]: 4.74 nM | K [32]: 4.43 ×10⁷ /M/s | K [33]: 0.21 s⁻¹ | Drug metabolism [34]: Metabolite_Notdetected
SMILES: O=C(c1nccc2[nH]cnc12)N1CCC(F)(F)[C@@H](Oc2ccc3ccccc3n2)C1
Ki [3]: 5.2 nM | Ratio Ki (CHO): 411

CLint scaled [10]: 829 mL/min/kg | bioavailability [13]: 10% | clearance [14]: 69 mL/min/kg | Ki (Orexin receptor type 2 [4]): 1410 nM
SMILES: O=C(c1cccc2[nH]cnc12)N1CCC(F)(F)[C@@H](Oc2ccc3ccccc3n2)C1
Ki [3]: 3.8 nM | Ratio Ki (CHO): 371
